pIC50: −log10 of the molar value. Where a SMILES comes first, the peptide text is derived from it. Bridges are numbered along the chain shown (N, C = ends). [ ]: non-standard residue; d: D form. The star is where a group is joined. hPhe(3-Cl-4-CF3) = N[C@@H](CCc1ccc(C(F)(F)F)c(Cl)c1)C(=O)O; NPrPhe(4-CF3) = CCCN[C@@H](Cc1ccc(C(F)(F)F)cc1)C(=O)O; NMeGly(cPent) = CN[C@H](C(=O)O)C1CCCC1; cisHyp = O=C(O)[C@@H]1C[C@H](O)CN1; Hyp = O=C(O)[C@@H]1C[C@@H](O)CN1; NMeD = CN[C@@H](CC(=O)O)C(=O)O; NMeL = CN[C@@H](CC(C)C)C(=O)O; Morpholide = C1CN(*)CCO1; NMeA = CN[C@@H](C)C(=O)O; Ac5c = NC1(C(=O)O)CCCC1; Aze = O=C(O)[C@@H]1CCN1; Ac3c = NC1(C(=O)O)CC1; Sar = CNCC(=O)O
Experiments:
[1] = biological target: GDP-bound NRAS wild-type protein (Homo sapiens, UniProt P01111); experiment: Binding to NRAS by surface plasmon resonance (SPR), KD and KD ratio to KRAS
GDP-bound NRAS wild-type protein, sequence (P01111 whole entry): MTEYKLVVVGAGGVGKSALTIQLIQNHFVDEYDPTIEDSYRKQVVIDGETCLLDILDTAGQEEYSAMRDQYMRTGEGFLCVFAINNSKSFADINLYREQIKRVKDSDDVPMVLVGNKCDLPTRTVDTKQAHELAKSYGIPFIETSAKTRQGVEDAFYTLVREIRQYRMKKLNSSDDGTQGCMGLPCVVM
In short: (§1)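 Recombinant RAS proteins bearing a biotinylated Avi tag and loaded with GDP served as the captured ligand, recaptured fresh every cycle. Binding responses were referenced to an uncoated surface and a buffer-only blank cycle. Dissociation constants were obtained by 1:1 model fitting at 30°C.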

[2] = tested on: human lung cancer strain NCI-H441; format: cell-based
In short: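 Signal came from […] measured per well once the reagent was added. Beforehand, cells were cultured at 37°C and 5% carbon dioxide on a compound series serially diluted in dimethyl sulfoxide.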

[3] = biological target: HRAS wild-type protein (Homo sapiens, UniProt P01112); experiment: Binding to HRAS by surface plasmon resonance (SPR), KD and KD ratio to KRAS
HRAS wild-type protein, sequence (P01112 whole entry): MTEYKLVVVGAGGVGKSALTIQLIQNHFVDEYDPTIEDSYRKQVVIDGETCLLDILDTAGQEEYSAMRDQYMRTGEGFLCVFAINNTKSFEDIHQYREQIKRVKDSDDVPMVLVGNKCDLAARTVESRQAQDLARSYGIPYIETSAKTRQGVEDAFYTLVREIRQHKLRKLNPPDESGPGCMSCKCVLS
In short: as §1

[4] = ratio of KD with respect to GDP-bound NRAS wild-type protein to KD with respect to KRAS
[5] = ratio of KD with respect to HRAS wild-type protein to KD with respect to KRAS
[6] = ratio of KD for GDP-bound NRAS wild-type protein to KD for KRAS
[7] = ratio of KD for HRAS wild-type protein to KD for KRAS
[8] = ratio of the KD value with respect to GDP-bound NRAS wild-type protein to the KD value with respect to KRAS
[9] = ratio of the KD value with respect to HRAS wild-type protein to the KD value with respect to KRAS

SMILES | pIC50 [2] | NRAS /KRAS [1, 4] | HRAS /KRAS [3, 5] | NRAS /KRAS [1, 6] | HRAS /KRAS [3, 7] | NRAS /KRAS [1, 8] | HRAS /KRAS [3, 9]
CCO[C@@H]1C[C@H]2C(=O)NC3(CCCC3)C(=O)N(C)[C@@H](C3CCCC3)C(=O)N(C)[C@H](C(=O)N(C)C)CC(=O)N(C)[C@@H](CC(C)C)C(=O)N[C@@H]([C@@H](C)CC)C(=O)N(C)CC(=O)N(C)[C@H]3CC(C)=C(C)CN(C3=O)[C@@H](Cc3ccc(C(F)(F)F)cc3)C(=O)N(C)CC(=O)N[C@@H](CCc3cc(F)c(C(F)(F)F)c(F)c3)C(=O)N2C1 [PP1045] | 6.68 |  |  | C (A compound having a KD ratio of 0.1 or more and less than 3 is denoted as C) | C (A compound having a KD ratio of 0.1 or more and less than 3 is denoted as C) |  | 
CC[C@H](C)[C@@H]1NC(=O)[C@H](CC(C)C)N(C)C(=O)C[C@@H](C(=O)N2CCOCC2)N(C)C(=O)[C@H](C2CCCC2)N(C)C(=O)C2(CCCC2)NC(=O)[C@@H]2CCCN2C(=O)[C@H](CCc2ccc(C(F)(F)F)c(Cl)c2)NC(=O)CN(C)C(=O)[C@H](Cc2ccc(OC(F)(F)F)cc2)N2CC=CC[C@@H](C2=O)N(C)C(=O)CN(C)C1=O [PP0537] | 6.71 |  |  |  |  | C (A compound having a KD ratio of 0.1 or more and less than 3 is denoted as C) | C (A compound having a KD ratio of 0.1 or more and less than 3 is denoted as C)
CC[C@H](C)[C@@H]1NC(=O)[C@@H]2CCC/C=C/c3ccc(cc3)C[C@@H](C(=O)N(C)CC(=O)N[C@@H](CCc3ccc(Cl)c(Cl)c3)C(=O)N3CCC[C@H]3C(=O)NC3(CC(C)(C)C3)C(=O)N(C)[C@@H](C3CCCC3)C(=O)N(C)[C@H](C(=O)N3CCCC3)CC(=O)N2C)N2CC/C=C\C[C@@H](C2=O)N(C)C(=O)CN(C)C1=O [PP2602] | 7.89 |  |  | A (a compound having 10 or more and less than 20 is denoted as A) | A (a compound having 10 or more and less than 20 is denoted as A) |  | 
CCO[C@@H]1C[C@H]2C(=O)NC3(CCC3)C(=O)N(C)[C@@H](C3CCCC3)C(=O)N(C)[C@H](C(=O)N(CC)CC)CC(=O)N(C)[C@@H](CC(C)C)C(=O)N[C@@H]([C@@H](C)CC)C(=O)N(C)CC(=O)N(C)[C@H]3C/C=C\CCN(C3=O)[C@@H](Cc3ccc(C(F)(F)F)cc3)C(=O)N(C)CC(=O)N[C@@H](CCc3cc(F)c(C(F)(F)F)c(F)c3)C(=O)N2C1 [PP1306] | 7.83 | AA (a compound having 20 or more is denoted as AA) | A (a compound having 10 or more and less than 20 is denoted as A) |  |  |  | 
CCCN1C(=O)[C@@H]2CCN2C(=O)[C@H](C)N(C)C(=O)[C@H]([C@@H](C)CC)NC(=O)[C@H](CC(C)C)N(C)C(=O)C[C@@H](C(=O)N2CCOCC2)N(C)C(=O)[C@H](C2CCCC2)N(C)C(=O)C2(CC2)NC(=O)[C@@H]2CCCN2C(=O)[C@H](CCc2ccc(C(F)(F)F)c(Cl)c2)NC(=O)CN(C)C(=O)[C@@H]1Cc1ccc(C(F)(F)F)cc1 [PP0224] ([NMeL]I[NMeA][Aze][NPrPhe(4-CF3)][Sar][hPhe(3-Cl-4-CF3)]P[Ac3c][NMeGly(cPent)][NMeD]-Morpholide; lactam N-11) | 8.70 |  |  | C (A compound having a KD ratio of 0.1 or more and less than 3 is denoted as C) | B (a compound having 3 or more and less than 10 is denoted as B) |  | 
CC[C@H](C)[C@@H]1NC(=O)[C@H](COC)N(C)C(=O)C[C@@H](C(=O)N2CCOCC2)N(C)C(=O)[C@H](C2CCCC2)N(C)C(=O)C2(CCCC2)NC(=O)[C@@H]2CCCN2C(=O)[C@H](CCc2ccc(C(F)(F)F)c(Cl)c2)NC(=O)CN(C)C(=O)[C@H](Cc2ccc(F)cc2)N2CCCCC[C@@H](C2=O)N(C)C(=O)CN(C)C1=O [PP0960] | 6.99 |  |  | B (a compound having 3 or more and less than 10 is denoted as B) | B (a compound having 3 or more and less than 10 is denoted as B) |  | 
CC[C@H](C)[C@@H]1NC(=O)[C@H](CC(C)C)N(C)C(=O)C[C@@H](C(=O)N2CCOCC2)N(C)C(=O)[C@H](C2CCCC2)N(C)C(=O)C2(CCCC2)NC(=O)[C@@H]2CCCN2C(=O)[C@H](CCc2ccc(C(F)(F)F)c(Cl)c2)NC(=O)CN(C)C(=O)[C@H](Cc2ccc(C)cc2)N2CCCC[C@@H](C2=O)N(C)C(=O)CN(C)C1=O [PP0316] | 8.55 |  |  | C (A compound having a KD ratio of 0.1 or more and less than 3 is denoted as C) | B (a compound having 3 or more and less than 10 is denoted as B) |  | 

Further lines, with some results ahead:

pIC50 [2] | SMILES | NRAS /KRAS [1, 4] | HRAS /KRAS [3, 5] | NRAS /KRAS [1, 6] | HRAS /KRAS [3, 7] | NRAS /KRAS [1, 8] | HRAS /KRAS [3, 9]
7.64 | CCO[C@@H]1C[C@H]2C(=O)NC3(CCC3)C(=O)N(C)[C@@H](C3CCCC3)C(=O)N(C)[C@H](C(=O)N(C)CCOC)CC(=O)N(C)[C@@H](CC(C)C)C(=O)N[C@@H]([C@@H](C)CC)C(=O)N(C)CC(=O)N(C)[C@H]3C/C=C\CCN(C3=O)[C@@H](Cc3ccc(C(F)(F)F)cc3)C(=O)N(C)CC(=O)N[C@@H](CCc3ccc(Cl)c(Cl)c3)C(=O)N2C1 [PP1326] | AA (a compound having 20 or more is denoted as AA) | A (a compound having 10 or more and less than 20 is denoted as A) |  |  |  | 
8.72 | CCCN1C(=O)CN(C)C(=O)CN(C)C(=O)[C@H]([C@@H](C)CC)NC(=O)[C@H](CC(C)C)N(C)C(=O)C[C@@H](C(=O)N(C)C)N(C)C(=O)[C@H](C2CCCC2)N(C)C(=O)C2(CCCC2)NC(=O)[C@@H]2C[C@@H](OCC)CN2C(=O)[C@H](CCc2ccc(C(F)(F)F)c(Cl)c2)NC(=O)CN(C)C(=O)[C@@H]1Cc1ccc(C(F)(F)F)cc1 [PP0415] ([NMeL]I[Sar][Sar][NPrPhe(4-CF3)][Sar][hPhe(3-Cl-4-CF3)][Hyp](Et)[Ac5c][NMeGly(cPent)][NMeD]-NMe2; lactam N-11) |  |  |  |  | B (a compound having 3 or more and less than 10 is denoted as B) | B (a compound having 3 or more and less than 10 is denoted as B)
7.95 | CCCN(C)C(=O)[C@@H]1CC(=O)N(C)[C@@H](C2CC2)C(=O)N[C@@H]([C@@H](C)CC)C(=O)N(C)CC(=O)N(C)[C@H]2C/C=C\CCN(C2=O)[C@@H](Cc2ccc(C(F)(F)F)cc2)C(=O)N(C)CC(=O)N[C@@H](CCc2ccc(C(F)(F)F)c(OC)c2)C(=O)N2C[C@@H](C)C[C@H]2C(=O)NC2(CCC2)C(=O)N(C)[C@@H](C2CCCC2)C(=O)N1C [PP2070] |  |  |  |  | A (a compound having 10 or more and less than 20 is denoted as A) | A (a compound having 10 or more and less than 20 is denoted as A)
8.21 | CCC[C@H]1C(=O)N[C@@H]([C@@H](C)CC)C(=O)N(C2CC2)CC(=O)N(C)[C@H]2C/C=C\CCN(C2=O)[C@@H](Cc2ccc(C)cc2)C(=O)N(C)CC(=O)N[C@@H](CCc2cc(F)c(C(F)(F)F)c(F)c2)C(=O)N2C[C@H](OCC)C[C@H]2C(=O)N(C)C2(CCC2)C(=O)N(C)[C@@H](C2CCCC2)C(=O)N(C)[C@H](C(=O)N2CCCC2)CC(=O)N1C [PP3113] |  |  | A (a compound having 10 or more and less than 20 is denoted as A) | A (a compound having 10 or more and less than 20 is denoted as A) |  | 
7.63 | CCCN1C(=O)CN(C)C(=O)CN(C)C(=O)[C@H]([C@@H](C)CC)NC(=O)[C@H](CC(C)C)N(C)C(=O)C[C@@H](C(=O)N2CCOCC2)N(C)C(=O)[C@H](C2CCCC2)N(C)C(=O)C2(CCCC2)NC(=O)[C@@H]2C[C@H](OCC)CN2C(=O)[C@H](CCc2ccc(C(F)(F)F)c(Cl)c2)NC(=O)CN(C)C(=O)[C@@H]1Cc1ccc(C(F)(F)F)cc1 [PP0243] ([NMeL]I[Sar][Sar][NPrPhe(4-CF3)][Sar][hPhe(3-Cl-4-CF3)][cisHyp](Et)[Ac5c][NMeGly(cPent)][NMeD]-Morpholide; lactam N-11) |  |  | B (a compound having 3 or more and less than 10 is denoted as B) | C (A compound having a KD ratio of 0.1 or more and less than 3 is denoted as C) |  | 

From patent EP4603105A1, “PHARMACEUTICAL COMPOSITION CONTAINING CYCLIC COMPOUND HAVING SELECTIVE KRAS INHIBITORY EFFECT AGAINST HRAS AND NRAS” (CHUGAI SEIYAKU KABUSHIKI KAISHA, priority 2022, dated 2024)
